This assay deals with human orexin type 2 receptor (hOX2R) (Homo sapiens (Human), UniProt O43614). As to the kind of experiment: Measurement of orexin type 2 receptor agonist activity (Experimental Example 2-1, FLIPR TETRA, intracellular Ca2+). Conditions: CHO dhfr- cells expressing hOX2R; for Emax: read-out: Emax (%); for Emax at 30 µM: value at 30 uM concentration, orexin B as full agonist = 100%. Type of assay: cell-based.

Where [1] appears, read: agonist activity, 10 nM human orexin B = 100%.

human orexin type 2 receptor (hOX2R), sequence (O43614 whole entry): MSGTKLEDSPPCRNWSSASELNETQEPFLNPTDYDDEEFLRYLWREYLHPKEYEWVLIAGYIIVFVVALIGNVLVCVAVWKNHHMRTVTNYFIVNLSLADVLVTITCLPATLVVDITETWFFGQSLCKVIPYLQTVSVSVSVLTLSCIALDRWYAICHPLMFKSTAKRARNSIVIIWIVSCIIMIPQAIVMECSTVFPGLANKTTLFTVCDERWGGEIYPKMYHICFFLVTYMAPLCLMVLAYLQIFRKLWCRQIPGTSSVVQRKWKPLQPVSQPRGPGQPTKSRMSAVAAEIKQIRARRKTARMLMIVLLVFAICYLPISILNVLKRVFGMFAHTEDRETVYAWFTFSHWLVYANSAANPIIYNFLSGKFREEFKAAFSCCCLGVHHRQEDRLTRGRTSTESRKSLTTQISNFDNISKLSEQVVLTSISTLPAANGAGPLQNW

Broadly, the EC50 is the midpoint of the concentration-response curve. The term Emax denotes the size of the effect at its maximum, as opposed to the concentration needed. Consider `CN(C)S(=O)(=O)N[C@H]1CCCN(C(=O)C2CC2)[C@H]1CO[C@H]1CC[C@@H](c2ccccc2)CC1` [Example 310, N′-((2R,3S)-1-(cyclopropylcarbonyl)-2-(((cis-4-phenylcyclohexyl)oxy)methyl)-piperidin-3-yl)-N,N-dimethylsulfuric diamide], for which, where the note is “FLIPR TETRA, Fluo-4AM”, the EC50 came out at 0.0022 µM and the Emax amounted to 101%.

Regarding `CCS(=O)(=O)N[C@H]1CCCN(C(C)=O)[C@H]1CO[C@H]1CC[C@@H](C(C)C)CC1` [Example 33, N-((2R,3S)-1-acetyl-2-(((cis-4-isopropylcyclohexyl)oxy)methyl)piperidin-3-yl)ethanesulfonamide], the maximal response (Emax) at 30 µM is 98%. For the same molecule, under setting [1], a half-maximal response (EC50) required 0.068 µM.

Turning to `Cc1ccccc1[C@H]1CC[C@@H](OC[C@@H]2NCCC[C@@H]2NS(C)(=O)=O)CC1` [Example 318, N-((2R,3S)-2-(((cis-4-(2-methylphenyl)cyclohexyl)oxy)-methyl)piperidin-3-yl)methanesulfonamide], for the setting “FLIPR TETRA, Fluo-4AM”, the concentration for a half-maximal effect (EC50) is 1.1 µM and the maximum response (Emax) was found to be 99%.

Regarding `CS(=O)(=O)N[C@H]1CCCN(C(=O)Cc2nccs2)[C@H]1CO[C@H]1CC[C@@H](c2ccccc2)CC1` (relative stereo) [Example 157, N-(cis-2-(((cis-4-phenylcyclohexyl)oxy)methyl)-1-(1,3-thiazol-2-ylacetyl)piperidin-3-yl)methanesulfonamide], where the note is “FLIPR TETRA, Fluo-4AM”, the 50% effective concentration (EC50) was 0.14 µM and the Emax amounted to 91%.

With `CC(=O)N1CCC[C@H](NS(C)(=O)=O)[C@@H]1COC1CCC(c2ccccc2)C1` (relative stereo) [Example 337, N-(cis-1-acetyl-2-(((3-phenylcyclopentyl)oxy)methyl)-piperidin-3-yl)methanesulfonamide], for the setting “FLIPR TETRA, Fluo-4AM”, it took 2.4 µM to reach a half-maximal effect (EC50) and the Emax was 88%.

As to `CC(=O)N1CCC[C@H](NS(C)(=O)=O)[C@@H]1CO[C@H]1CC[C@@H](C(F)(F)F)CC1` (relative stereo) [Example 106, N-(cis-1-acetyl-2-(((cis-4-(trifluoromethyl)cyclohexyl)oxy)methyl)piperidin-3-yl)methanesulfonamide], the maximal effect (Emax) at 30 µM stood at 89%. This molecule also gave an EC50 under setting [1] of 4.8 µM.

With `CS(=O)(=O)N[C@H]1CCCN(C(=O)[C@@H]2CCOC2)[C@H]1CO[C@H]1CC[C@@H](c2ccccc2)CC1` [Example 150, N-(cis-2-(((cis-4-phenylcyclohexyl)oxy)methyl)-1-((3R)-tetrahydrofuran-3-ylcarbonyl)piperidin-3-yl)methanesulfonamide], for the setting “FLIPR TETRA, Fluo-4AM”, the EC50 is 0.03 µM and the maximum response (Emax) was found to be 99%.

With `CC(=O)N(C)CC(=O)N1CCC[C@H](NS(C)(=O)=O)[C@@H]1CO[C@H]1CC[C@@H](c2ccccc2)CC1` (relative stereo) [Example 156, N-methyl-N-(2-(cis-3-((methylsulfonyl)amino)-2-(((cis-4-phenylcyclohexyl)oxy)methyl)piperidin-1-yl)-2-oxoethyl)acetamide], for the setting “FLIPR TETRA, Fluo-4AM”, a half-maximal effect (EC50) was put at 0.35 µM and the maximum response (Emax) was determined as 95%.

For the molecule `CS(=O)(=O)N[C@H]1CCCN(C(=O)C2CC2)[C@H]1CO[C@H]1CC[C@@H](c2cccc(F)c2F)CC1` [Example 250, N-((2R,3S)-1-(cyclopropylcarbonyl)-2-(((cis-4-(2,3-difluorophenyl)cyclohexyl)oxy)methyl)piperidin-3-yl)methanesulfonamide], where the note is “FLIPR TETRA, Fluo-4AM”, the EC50 came to 0.0017 µM and the maximal effect (Emax) worked out at 105%.

In the case of `CS(=O)(=O)N[C@H]1CCCN(C(=O)C2CC2)[C@H]1COC1CCN(c2ncccn2)CC1(F)F` (relative stereo) [Example 211, N-(cis-1-(cyclopropylcarbonyl)-2-(((3,3-difluoro-1-(pyrimidin-2-yl)piperidin-4-yl)oxy)methyl)piperidin-3-yl)methanesulfonamide], under “FLIPR TETRA, Fluo-4AM”, a half-maximal effect (EC50) was put at 1.1 µM and the Emax worked out at 94%.

In the case of `CS(=O)(=O)N[C@H]1CCCN[C@H]1CO[C@H]1CC[C@@H](c2cc(F)ccc2F)CC1` [Example 10, N-((2R,3S)-2-(((cis-4-(2,5-difluorophenyl)cyclohexyl)oxy)methyl)piperidin-3-yl)methanesulfonamide], the maximal response (Emax) at 30 µM was found to be 113%. In addition, the concentration giving a half-maximal response (EC50) under setting [1] was 0.22 µM.

The values above are taken from US10287305B2, “Substituted piperidine compound and use thereof” (Takeda Pharmaceutical Company Limited, priority 2016, dated 2019).
